Experiment [1] can be described thus: Compound was evaluated for inhibition of beta-galactosidase from aspergillus oryzae (sigma G 7256).
The nature of experiment [2]: Inhibition of jack bean alpha-mannosidase.
Experiment [3] in a line: Compound was evaluated for inhibition of alpha-galactosidase from green coffee beans (sigma G 8507).
Experiment [4] in a line: Compound was evaluated for inhibition of beta-glucosidase from almonds(sigma G 4511).
Experiment [5] in a line: Compound was evaluated for inhibition of alpha-fucosidase from bovine kidney(sigma F 5884).

For the molecule `CCCCN1CC(C)C(O)C(O)C1` (stereo not given) [1-Butyl-5-methyl-piperidine-3,4-diol], the IC50 in experiment [1] is > 1 mM; in experiment [2] it was > 1 mM; in experiment [3], > 1 mM; in experiment [4], 80 µM; in experiment [5], 270 µM.
